SMILES strings stand for the structures.

The assay deals with T1, recombinant human EP-2 receptor (Homo sapiens, UniProt P43116).
T1 construct: cell line stably transfected with full length cDNA encoding human Prostaglandin E2 was established; expressed in transfected cells; host or cells: CHO (Chinese hamster ovary) cells, stably transfected
T1 sequence (P43116 whole entry): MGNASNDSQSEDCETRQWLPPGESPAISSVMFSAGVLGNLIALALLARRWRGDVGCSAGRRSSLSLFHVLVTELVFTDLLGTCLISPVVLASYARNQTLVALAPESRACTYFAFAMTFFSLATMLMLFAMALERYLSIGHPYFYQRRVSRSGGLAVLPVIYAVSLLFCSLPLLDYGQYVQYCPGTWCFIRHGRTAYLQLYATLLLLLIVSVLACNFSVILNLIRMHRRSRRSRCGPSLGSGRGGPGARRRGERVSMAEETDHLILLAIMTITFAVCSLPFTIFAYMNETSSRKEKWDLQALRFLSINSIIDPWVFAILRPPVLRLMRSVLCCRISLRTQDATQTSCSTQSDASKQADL
As to the kind of experiment: in vitro antagonist potency against recombinant human EP-2 receptor in CHO cells (cAMP, Protocol 1). The assay is classed as cell-based. The conditions noted are these: functional Ki by Cheng-Prusoff from IC50; CHO cells stimulated with PGE2 (5 nM); cAMP readout; read-out: EP2 Ki. From the text: 1.0 Measurement of in vitro Antagonist Potency (IC50) of Compounds Against Recombinant Human Prostaglandin E2 Receptor in CHO Cells
The prostaglandin E2 (EP-2) receptor is Gs coupled and agonism of the receptor by PGE2 results in activation of intracellular adenylate cyclase enzymes that synthesise the second messenger signalling molecule, adenosine 3′,5′-cyclic monophosphate (cAMP). […] Decreases in cAMP levels following treatment of stimulated recombinant EP-2 cells with potential antagonist compounds were measured and potency (IC50) calculated as follows. A Chinese hamster ovary (CHO) cell line stably transfected with full length cDNA encoding human Prostaglandin E2 was established using standard molecular biology methods. Test compounds were dissolved in dimethyl sulphoxide (DMSO) at 4 mM. 11 point half log unit increment dilution series of test compound were prepared in DMSO then diluted 1 in 40 in a buffer comprised of phosphate buffered saline (PBS) and 0.05% pluronic F-127 surfactant. Freshly cultured cells at 80-90% confluence were harvested and re-suspended in 90% growth media/10% DMSO. The cells were frozen using a planar freezer and stored in frozen aliquots in cryovials in liquid nitrogen until the day of the experiment. A vial of cells was defrosted in a 37° C. water bath for 2 min, then transferred to 10 ml of Dulbecco's Modified Eagle's Medium (DMEM). The cells were then centrifuged for 5 min at 1000 g and the pellet re-suspended at 1,000,000 cells/ml in DMEM. 5,000 cells (5 ul) were added to 5 ul of the compound dilution series in a 384 well assay plate and pre-incubated for 30 min at 37° C. 5 ul of agonist (15 nM PGE2 in PBS to give 5 nM FAC) was added and plates further incubated for 90 min at 37° C. The relative cAMP concentration in each well was then measured using a ? -galactosidase enzyme fragment complementation method purchased in kit form as the Discoverx cAMP II kit from GE Healthcare, UK. […] Sigmoidal curves were fitted to plots of log10 inhibitor concentration vs. percent effect. IC50 estimates were determined as the concentration of test compound giving an effect half way between the bottom and top asymptotes of the sigmoidal dose response curve. Each experiment included an IC50 determination for the literature compound as a standard to track assay consistency and allow fair comparison between values obtained in different experiments. The EC50 of PGE2 is used in combination with the ligand concentration in the assay to determine Ki values for antagonist dose responses using the Cheng-Prusoff equation. Consequently an agonist dose response curve is carried out for each experiment using the same incubation as the antagonist plate.
In general, Ki refers to the dissociation constant of the complex between target and ligand, obtained from inhibition or displacement. Turning to `N#Cc1ccc(-c2ccc(OCC3(C(=O)O)CN(C(=O)c4ccc(Cl)cc4)C3)cc2)cc1` [Example 1, 1-(4-Chlorobenzoyl)-3-{[(4′-cyanobiphenyl-4-yl)oxy]methyl}azetidine-3-carboxylic acid], the Ki turned out to be 0.9 nM.

As for `O=C(c1ccc(Cl)cc1)N1CC(COc2ccc(-c3ccc(F)cc3)cc2)(C(=O)O)C1` [Example 2], the Ki came out at 1.1 nM.

Turning to `O=C(c1ccc(F)cc1)N1CC(COc2ccc(-c3ccc4ccccc4n3)cc2)(C(=O)O)C1` [Example 3], the Ki amounted to 0.7 nM.

In the case of `O=C(c1ccc(Cl)cc1)N1CC(COc2ccc(-c3ccc(Cl)cc3)cc2)(C(=O)O)C1` [Example 4], the Ki is 1.6 nM.

Take `O=C(c1ccc(Cl)cc1)N1CC(COc2ccc(-c3ccc(Cl)cn3)cc2)(C(=O)O)C1` [Example 5]: the Ki was 1.9 nM.

With `N#Cc1ccc(-c2ccc(OCC3(C(=O)O)CN(C(=O)c4ccc(F)cc4)C3)cc2)cc1` [Example 6], the Ki is 2.3 nM.

As for `O=C(c1ccc(F)cc1)N1CC(COc2ccc3nc(-c4ccccn4)sc3c2)(C(=O)O)C1` [Example 7], the Ki turned out to be 1.4 nM.

As for `O=C(c1ccc(F)cc1)N1CC(COc2ccc(-c3cc4ccccc4nn3)cc2)(C(=O)O)C1` [Example 8], the Ki was 2.3 nM.

As for `O=C(c1ccc(F)cc1)N1CC(COc2ccc(-c3ncc(Cl)cn3)cc2)(C(=O)O)C1` [Example 9], the Ki amounted to 6.6 nM.

Turning to `O=C(c1ccc(F)cc1)N1CC(COc2ccc(-c3ccc(Cl)cc3)cc2)(C(=O)O)C1` [Example 10], the inhibition constant Ki is 3.1 nM.

Take `O=C(c1ccc(F)cc1)N1CC(COc2cnc(-c3ccc(Cl)cc3)nc2)(C(=O)O)C1` [Example 11]: the Ki amounted to 10.5 nM.

For `O=C(c1ccc(F)cc1)N1CC(COc2ccc(-c3ccc(Cl)cn3)cc2)(C(=O)O)C1` [Example 12], the Ki worked out at 3.3 nM.

For `COc1ccc2cc(OCC3(C(=O)O)CN(C(=O)c4ccc(Cl)cc4)C3)ccc2c1` [Example 13], the inhibitory constant (Ki) was determined as 6 nM.

For the compound `Cc1ccc(-c2ccc(OCC3(C(=O)O)CN(C(=O)c4ccc(F)cc4)C3)cc2)cc1` [Example 15], the Ki is 7 nM.

On to `O=C(c1ccc(F)cc1)N1CC(COc2ccc(-c3ccc(F)cc3)cc2)(C(=O)O)C1` [Example 16], for which the Ki came out at 7.5 nM.

For `O=C(c1ccc(Cl)cc1)N1CC(COc2ccc(-c3ccccc3)cc2)(C(=O)O)C1` [Example 17], the Ki came to 19.5 nM.

In the case of `CCOc1ccccc1C(=O)N1CC(COc2ccc3cc(OC)ccc3c2)(C(=O)O)C1` [Example 18], the Ki was determined as 19.7 nM.

`COc1ccc2cc(OCC3(C(=O)O)CN(C(=O)c4ccccc4)C3)ccc2c1` [Example 20]: the inhibition constant Ki was 24.4 nM.

`O=C(c1ccccc1)N1CC(COc2ccc(-c3ccccc3)cc2)(C(=O)O)C1` [Example 21]: the Ki stood at 27.7 nM.

Turning to `O=C(c1ccc(F)cc1)N1CC(COc2ccc(-c3ccccn3)cc2)(C(=O)O)C1` [Example 22], the Ki amounted to 53.9 nM.

Take `Cc1ccc2cc(OCC3(C(=O)O)CN(C(=O)c4ccc(Cl)cc4)C3)ccc2n1` [Example 23]: the inhibition constant (Ki) was 101 nM.

Turning to `Cc1cc(C)c2cc(OCC3(C(=O)O)CN(C(=O)c4ccc(F)cc4)C3)ccc2n1` [Example 24], the Ki amounted to 103 nM.

On to `Cc1ccc2cc(OCC3(C(=O)O)CN(C(=O)c4ccc(F)cc4)C3)ccc2n1` [Example 25], for which the Ki was 122 nM.

`Cc1ccc2cc(OCC3(C(=O)O)CN(C(=O)c4cccc(Cl)c4)C3)ccc2n1` [Example 26]: the Ki came out at 125 nM.

Turning to `O=C(c1ccc(F)cc1)N1CC(COc2ccc(-c3ccccn3)nc2)(C(=O)O)C1` [Example 27], the Ki turned out to be 146 nM.

As to `O=C(c1ccccc1)N1CC(COc2ccc3ccccc3c2)(C(=O)O)C1` [Example 28], the Ki turned out to be 175 nM.

With `COc1ccc2ccc(OCC3(C(=O)O)CN(C(=O)c4ccc(F)cc4)C3)cc2c1` [Example 29], the Ki stood at 196 nM.

As for `Cc1nc2ccc(OCC3(C(=O)O)CN(C(=O)c4ccc(F)cc4)C3)cc2s1` [Example 30], the Ki amounted to 206 nM.

In the case of `COc1cccc(C(=O)N2CC(COc3ccc4nc(C)ccc4c3)(C(=O)O)C2)c1` [Example 31], the Ki is 233 nM.

`Cc1ccc2cc(OCC3(C(=O)O)CN(C(=O)c4ccccc4)C3)ccc2n1` [Example 32]: the Ki came to 271 nM.

Turning to `O=C(c1ccc(F)cc1)N1CC(COc2cnc3ccccc3c2)(C(=O)O)C1` [Example 33], the Ki came out at 304 nM.

As for `CCOc1ccc(C(=O)N2CC(COc3ccc4nc(C)ccc4c3)(C(=O)O)C2)cc1` [Example 34], the Ki is 338 nM.

With `O=C(c1ccc(Cl)cc1)N1CC(COc2cccc(-c3ccccc3)c2)(C(=O)O)C1` [Example 35], the inhibition constant (Ki) was 525 nM.

As for `O=C(c1ccccc1)N1CC(COc2cccc(-c3ccccc3)c2)(C(=O)O)C1` [Example 36], the inhibition constant (Ki) was determined as 705 nM.

Take `O=C(c1ccc(F)cc1)N1CC(COc2cccc(-c3ccccc3)c2)(C(=O)O)C1` [Example 37]: the inhibitory constant (Ki) turned out to be 752 nM.

For `CCCOc1ccc(OCC2(C(=O)O)CN(C(=O)c3ccc(Cl)cc3)C2)cc1` [Example 38], the Ki worked out at 31.4 nM.

As for `O=C(c1ccc(F)cc1)N1CC(COc2ccc(-c3ccccc3Cl)cc2)(C(=O)O)C1` [Example 39, 3-{[(2′-Chlorobiphenyl-4-yl)oxy]methyl}-1-(4-fluorobenzoyl)azetidine-3-carboxylic acid], the Ki is 22.5 nM.

Consider `O=C(c1ccccc1)N1CC(COc2cnc(-c3ccc(Cl)cc3)cn2)(C(=O)O)C1` [Example 42], for which the Ki stood at 5 nM.

On to `O=C(c1ccc(F)cc1)N1CC(COc2ccc(-c3cccc(Cl)c3)cc2)(C(=O)O)C1` [Example 43], for which the Ki is 5.2 nM.

Turning to `O=C(c1ccc(F)cc1)N1CC(COc2ccc(-c3ccc(F)cc3F)cc2)(C(=O)O)C1` [Example 44], the inhibitory constant (Ki) was determined as 5.6 nM.

For `O=C(c1ccccc1)N1CC(COc2cnc(-c3ccccc3)cn2)(C(=O)O)C1` [Example 45, 1-Benzoyl-3-{[(5-phenylpyrazin-2-yl)oxy]methyl}azetidine-3-carboxylic acid], the Ki came to 56.7 nM.

Consider `COc1ccc(-c2cnc(OCC3(C(=O)O)CN(C(=O)c4ccccc4)C3)nc2)cc1` [Example 46], for which the Ki turned out to be 37.2 nM.

Take `O=C(c1ccc(Cl)cc1)N1CC(COc2ccc(-c3ccccc3)nn2)(C(=O)O)C1` [Example 47]: the Ki turned out to be 69.3 nM.

On to `COc1ccc2nc(OCC3(C(=O)O)CN(C(=O)c4ccccc4)C3)ccc2c1` [Example 48], for which the Ki is 79.7 nM.

Take `O=C(c1ccccc1)N1CC(COc2ccc(-c3ccccc3)cn2)(C(=O)O)C1` [Example 49]: the Ki was 114 nM.

For the compound `COc1ccc2cc(OCC3(C(=O)NS(C)(=O)=O)CN(C(=O)c4ccc(F)cc4)C3)ccc2c1` [Example 50, 1-(4-Fluorobenzoyl)-3-{[(6-methoxy-2-naphthyl)oxy]methyl}-N-(methylsulfonyl)azetidine-3-carboxamide], the inhibition constant (Ki) worked out at 776 nM.

For the compound `CCOC(=O)C1(COc2ccc3cc(OC)ccc3c2)CN(C(=O)c2ccc(F)cc2)C1` [Example 51, Ethyl 1-(4-fluorobenzoyl)-3-{[(6-methoxy-2-naphthyl)oxy]methyl}azetidine-3-carboxylate], the Ki stood at 333 nM.

Consider `COc1ccc2cc(OCC3(C#N)CN(C(=O)c4ccc(F)cc4)C3)ccc2c1` [Example 52, 1-(4-Fluorobenzoyl)-3-{[(6-methoxy-2-naphthyl)oxy]methyl}azetidine-3-carbonitrile], for which the Ki is 182 nM.

Turning to `O=C(c1ccc(F)cc1)N1CC(COc2ccc(Br)cc2)(C(=O)O)C1` [Example 53, 3-[(4-Bromophenoxy)methyl]-1-(4-fluorobenzoyl)azetidine-3-carboxylic acid], the Ki is 615 nM.

Regarding `O=C(C1CCC(F)(F)CC1)N1CC(COc2ccc(-c3ccc(Cl)cc3)cc2)(C(=O)O)C1` [Example 54, 3-{[(4′-Chlorobiphenyl-4-yl)oxy]methyl}-1-[(4,4-difluorocyclohexyl)carbonyl]azetidine-3-carboxylic acid], the Ki turned out to be 10.9 nM.

For the compound `COc1ccc2cc(OCC3(C(=O)O)CN(C(=O)Oc4ccc(F)cc4)C3)ccc2c1` [Example 60, 1-[(4-Fluorophenoxy)carbonyl]-3-{[(6-methoxy-2-naphthyl)oxy]methyl}azetidine-3-carboxylic acid], the inhibitory constant (Ki) is 268 nM.

As for `COc1ccc(OC(=O)N2CC(COc3ccc4cc(OC)ccc4c3)(C(=O)O)C2)cc1` [Example 62], the Ki amounted to 12.4 nM.

(Values after patent US20080280877A1, “Azetidines” (Pfizer Inc, priority 2007, published 2008).)
